Assay results reported in patent US10703757B2, “Compounds and methods for CDK8 modulation and indications therefor” (Plexxikon Inc., priority 2016, dated 2020).

Columns and labels:
[1] = test system: CDK8 (phosphorylation of STAT1 at serine 727 in A549 cells); experiment: Cell based Phospho-STAT1 assay (IFNγ-stimulated A549 cells, AlphaLISA); details: Homo sapiens, A549, A549 cells, phospho-STAT1 after IFNγ stimulation
Method in brief: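 A549 cells given serial compound dilutions for 1 h at 37 °C, then stimulated with IFNγ at 10 ng/mL final for 30 min. Lysate STAT1 Ser727 phosphorylation measured by AlphaLISA; % inhibition vs stimulated/unstimulated DMSO controls, IC50 by nonlinear regression.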

[2] = test system: CDK8 (TCF/LEF luciferase reporter in HCT116 cells); experiment: Cell based TCF/LEF reporter assay (HCT116+TCF/LEF luciferase); details: Homo sapiens, HCT-116, 24 h
Source text: Determine Inhibitor Activity Against CDK8 in Cell Based TCF/LEF Reporter Assay
The colorectal carcinoma cell line HCT116 was stably transduced with lentivirus encoding the TCF/LEF promoter upstream of a luciferase reporter gene (Qiagen) and single cell clones expressing this construct (referred to as HCT116+TCF/LEF) were isolated. HCT116 express endogenous mutant β-catenin^3, resulting in up-regulation of transcription through the TCF/LEF promoter. Expression of the TCF/LEF reporter construct in HCT116 results in constitutive expression of luciferase. Treatment of the cells with inhibitors of components of the β-catenin signaling pathway (such as CDK8) results in decreased expression of luciferase. The assay is performed as follows. The HCT116+TCF/LEF cell line is seeded in a 96 well plate in 50 μL of culture media at 1×10^4 cells/well and incubated at 37° C. overnight. Serial dilutions of compounds (in total volume of 50 μL culture media) are added to the cells and incubated at 37° C. for 24 hours. 4 wells of DMSO treated cells serve as high controls and cells treated with 10 uM of the reference compound CCT251545 (a known CDK8 inhibitor)^4 serve as low controls. The viability of the cells is assayed by the addition of […] reagent (Promega) followed by 30 minute incubation at 37° C. and quantification of the fluorescent signal (Ex400/Em505). The luciferase expression is then assayed by the addition of 25 μL ONE-Glo reagent (Promega) followed by 10 minute incubation at room temperature and quantification of the luminescence signal. The luminescence signal is normalized to the fluorescence signal to correct for any loss in cell viability over the 24 hour compound incubation period. The percentage inhibition at individual concentrations relative to high and low controls is calculated. The data are analyzed by using nonlinear regression to generate IC50 values.

Row | IC50 [1] [nM] | IC50 [2] [nM] | SMILES
1 | 0.1 to 100 | 0.1 to 100 | N#CC1CC=C(c2nccn3ncc(-c4ccc(-c5cnn(CCF)c5)cc4)c23)CC1 (stereo not shown) [Compound P-0036, 4-(3-(4-(1-(2-fluoroethyl)-1H-pyrazol-4-yl)phenyl)pyrazolo[1,5-a]pyrazin-4-yl)cyclohex-3-ene-1-carbonitrile]
2 | 0.1 to 100 | 0.1 to 100 | N#CC1CC=C(c2nccn3ncc(-c4ccc(OCC5CC5)c(Cl)c4)c23)CC1 (stereo not shown) [Compound P-0038, 4-(3-(3-chloro-4-(cyclopropyl-methoxy)phenyl)pyrazolo[1,5-a]pyrazin-4-yl)cyclohex-3-ene-1-carbonitrile]
3 | 100 to 1000 | 100 to 1000 | N#CC1CC=C(c2nccn3ncc(-c4ccc(OCc5ccccc5)c(F)c4)c23)CC1 (stereo not shown) [Compound P-0039, 4-(3-(4-(benzyloxy)-3-fluorophenyl)pyrazolo[1,5-a]pyrazin-4-yl)cyclohex-3-ene-1-carbonitrile]
4 | 0.1 to 100 | 0.1 to 100 | CC(C)(O)c1ccc(-c2cnn3ccnc(C4=CCC(C#N)CC4)c23)cc1 (stereo not shown) [Compound P-0040, 4-(3-(4-(2-hydroxypropan-2-yl)phenyl)pyrazolo[1,5-a]pyrazin-4-yl)cyclohex-3-ene-1-carbonitrile]
5 | 0.1 to 100 | 0.1 to 100 | COc1ccc(-c2cnn3ccnc(C4=CCC(C#N)CC4)c23)cc1Cl (stereo not shown) [Compound P-0041, 4-(3-(3-chloro-4-methoxyphenyl)pyrazolo[1,5-a]pyrazin-4-yl)cyclohex-3-ene-1-carbonitrile]
6 | 100 to 1000 | 0.1 to 100 | CS(=O)(=O)Nc1ccc(-c2cnn3ccnc(C4=CCC(C#N)CC4)c23)cc1 (stereo not shown) [Compound P-0045, N-(4-(4-(4-cyanocyclohex-1-en-1-yl)pyrazolo[1,5-a]pyrazin-3-yl)phenyl)methanesulfonamide]
7 | 0.1 to 100 | 0.1 to 100 | CN(C)CCn1cc(-c2ccc(-c3cnn4ccnc(C5=CCC(C#N)CC5)c34)cc2)cn1 (stereo not shown) [Compound P-0047, 4-[3-[4-[1-(2-dimethylaminoethyl)pyrazol-4-yl]phenyl]pyrazolo[1,5-a]pyrazin-4-yl]cyclohex-3-ene-1-carbonitrile]
8 | 0.1 to 100 | 0.1 to 100 | CC(C)(C#N)Cn1cc(-c2ccc(-c3cnn4ccnc(C5=CCC(C#N)CC5)c34)cc2)cn1 (stereo not shown) [Compound P-0048, 4-(3-(4-(1-(2-cyano-2-methylpropyl)-1H-pyrazol-4-yl)phenyl)pyrazolo[1,5-a]pyrazin-4-yl)cyclohex-3-ene-1-carbonitrile]
9 | 0.1 to 100 | 0.1 to 100 | N#CC1CC=C(c2nccn3ncc(-c4ccc(-c5cnn(CCN6CCCC6)c5)cc4)c23)CC1 (stereo not shown) [Compound P-0049, 4-(3-(4-(1-(2-(pyrrolidin-1-yl)ethyl)-1H-pyrazol-4-yl)phenyl)pyrazolo[1,5-a]pyrazin-4-yl)cyclohex-3-ene-1-carbonitrile]
10 | 0.1 to 100 | 0.1 to 100 | N#CC1CC=C(c2nccn3ncc(-c4ccc(-c5cnn(CCN6CCOCC6)c5)cc4)c23)CC1 (stereo not shown) [Compound P-0051, 4-(3-(4-(1-(2-morpholinoethyl)-1H-pyrazol-4-yl)phenyl)pyrazolo[1,5-a]pyrazin-4-yl)cyclohex-3-ene-1-carbonitrile]
11 | 0.1 to 100 | 0.1 to 100 | CC1(COc2ccc(-c3cnn4ccnc(C5=CCC(C#N)CC5)c34)cc2)COC1 (stereo not shown) [Compound P-0055, 4-(3-(4-((3-methyloxetan-3-yl)methoxy)phenyl)pyrazolo[1,5-a]pyrazin-4-yl)cyclohex-3-ene-1-carbonitrile]
12 | 0.1 to 100 | 0.1 to 100 | Cc1nc2cc(-c3cnn4ccnc(C5=CCC(C#N)CC5)c34)ccc2[nH]1 (stereo not shown) [Compound P-0056, 4-(3-(2-methyl-1H-benzo[d]imidazol-5-yl)pyrazolo[1,5-a]pyrazin-4-yl)cyclohex-3-ene-1-carbonitrile]
13 | 0.1 to 100 | 0.1 to 100 | N#CC1CC=C(c2nccn3ncc(-c4ccc(OCCOC5CCS(=O)(=O)CC5)cc4)c23)CC1 (stereo not shown) [Compound P-0057, 4-(3-(4-(2-((1,1-dioxidotetrahydro-2H-thiopyran-4-yl)oxy)ethoxy)phenyl)pyrazolo[1,5-a]pyrazin-4-yl)cyclohex-3-ene-1-carbonitrile]
14 | 0.1 to 100 | 0.1 to 100 | N#CC1CCC(c2nccn3ncc(-c4ccc(OCCOC5CCOCC5)cc4)c23)CC1 (stereo not shown) [Compound P-0058, (1s,4s)-4-(3-(4-(2-((tetrahydro-2H-pyran-4-yl)oxy)ethoxy)phenyl)pyrazolo[1,5-a]pyrazin-4-yl)cyclohexane-1-carbonitrile]
15 | 0.1 to 100 | 0.1 to 100 | CCCS(=O)(=O)Nc1ccc2cc(-c3cnn4ccnc(C5=CCC(C#N)CC5)c34)ccc2c1 (stereo not shown) [Compound P-0060, N-(6-(4-(4-cyanocyclohex-1-en-1-yl)pyrazolo[1,5-a]pyrazin-3-yl)naphthalen-2-yl)propane-1-sulfonamide]
16 | 0.1 to 100 | 0.1 to 100 | N#CC1CC=C(c2nccn3ncc(-c4ccc5c(cnn5CC(F)(F)F)c4)c23)CC1 (stereo not shown) [Compound P-0063, 4-(3-(1-(2,2,2-trifluoroethyl)-1H-indazol-5-yl)pyrazolo[1,5-a]pyrazin-4-yl)cyclohex-3-ene-1-carbonitrile]

Further lines, the compound ahead of its results:

Row | SMILES | IC50 [1] [nM] | IC50 [2] [nM]
17 | CC(C)(O)Cn1cc(-c2ccc(-c3cnn4ccnc(C5=CCC(C#N)CC5)c34)cc2Cl)cn1 (stereo not shown) [Compound P-0042, 4-(3-(3-chloro-4-(1-(2-hydroxy-2-methylpropyl)-1H-pyrazol-4-yl)phenyl)pyrazolo[1,5-a]pyrazin-4-yl)cyclohex-3-ene-1-carbonitrile] | 0.1 to 100 | 0.1 to 100
18 | CC(C)(C#N)Cn1cc(-c2ccc(-c3cnn4ccnc(C5CCC(C#N)CC5)c34)cc2)cn1 (stereo not shown) [Compound P-0046, (1s,4s)-4-(3-(4-(1-(2-cyano-2-methylpropyl)-1H-pyrazol-4-yl)phenyl)pyrazolo[1,5-a]pyrazin-4-yl)cyclohexane-1-carbonitrile] | 0.1 to 100 | 0.1 to 100
19 | N#CC1CCC(c2nccn3ncc(-c4ccc(-c5cnn(CC6(C#N)CC6)c5)cc4)c23)CC1 (stereo not shown) [Compound P-0050, (1s,4s)-4-(3-(4-(1-((1-cyanocyclopropyl)methyl)-1H-pyrazol-4-yl)phenyl)pyrazolo[1,5-a]pyrazin-4-yl)cyclohexane-1-carbonitrile] | 0.1 to 100 | 0.1 to 100
20 | CC(C)(C#Cc1cccn2ncc(-c3ccc(-c4cnn(CC5(C#N)CC5)c4)cc3)c12)C(N)=O [Compound P-0052, 4-(3-(4-(1-((1-cyanocyclopropyl)methyl)-1H-pyrazol-4-yl)phenyl)pyrazolo[1,5-a]pyridin-4-yl)-2,2-dimethylbut-3-ynamide] | 0.1 to 100 | 0.1 to 100
21 | Cn1cc(-c2ccc(-c3cnn4ccnc(C5CCC(C#N)CC5)c34)cc2)cn1 (stereo not shown) [Compound P-0059, (1s,4s)-4-(3-(4-(1-methyl-1H-pyrazol-4-yl)phenyl)pyrazolo[1,5-a]pyrazin-4-yl)cyclohexane-1-carbonitrile] | 0.1 to 100 | 0.1 to 100
22 | CCCS(=O)(=O)Nc1ccc2cc(-c3cnn4ccnc(C5CCC(C#N)CC5)c34)ccc2c1 (stereo not shown) [Compound P-0061, N-(6-(4-((1s,4s)-4-cyanocyclohexyl)pyrazolo[1,5-a]pyrazin-3-yl)naphthalen-2-yl)propane-1-sulfonamide] | 0.1 to 100 | 0.1 to 100
23 | CC(C)(O)Cn1ncc2cc(-c3cnn4ccnc(C5CCC(C#N)CC5)c34)ccc21 (stereo not shown) [Compound P-0062, (1s,4s)-4-(3-(1-(2-hydroxy-2-methylpropyl)-1H-indazol-5-yl)pyrazolo[1,5-a]pyrazin-4-yl)cyclohexane-1-carbonitrile] | 0.1 to 100 | 0.1 to 100
24 | CC(C)(O)Cn1cc(-c2ccc(-c3cnn4ccnc(C5CCC(C#N)CC5)c34)cc2)cn1 (stereo not shown) [Compound P-0064, (1r,4r)-4-(3-(4-(1-(2-hydroxy-2-methylpropyl)-1H-pyrazol-4-yl)phenyl)pyrazolo[1,5-a]pyrazin-4-yl)cyclohexane-1-carbonitrile] | 0.1 to 100 | 0.1 to 100
25 | CCCS(=O)(=O)Nc1ccc2cc(-c3cnn4cccc(C#CC(C)(C)C(N)=O)c34)ccc2c1 [Compound P-0065, 2,2-dimethyl-4-(3-(6-(propylsulfonamido)naphthalen-2-yl)pyrazolo[1,5-a]pyridin-4-yl)but-2-ynamide] | 0.1 to 100 | 100 to 1000
26 | CC(C)(C#Cc1cccn2ncc(-c3ccc4c(cnn4C(F)F)c3)c12)C(=O)O [Compound P-0067, 4-(3-(1-(difluoromethyl)-1H-indazol-5-yl)pyrazolo[1,5-a]pyridin-4-yl)-2,2-dimethylbut-3-ynoic acid] | 100 to 1000 | 0.1 to 100
